Test results as given in ChEMBL document CHEMBL1144624, “1,2,3-Triazolylalkylribitol derivatives as nucleoside hydrolase inhibitors” (Bioorg Med Chem Lett, 2007).

Target: T1, IAG-nucleoside hydrolase (Trypanosoma vivax, UniProt Q9GPQ4)
T1 sequence (Q9GPQ4 whole entry): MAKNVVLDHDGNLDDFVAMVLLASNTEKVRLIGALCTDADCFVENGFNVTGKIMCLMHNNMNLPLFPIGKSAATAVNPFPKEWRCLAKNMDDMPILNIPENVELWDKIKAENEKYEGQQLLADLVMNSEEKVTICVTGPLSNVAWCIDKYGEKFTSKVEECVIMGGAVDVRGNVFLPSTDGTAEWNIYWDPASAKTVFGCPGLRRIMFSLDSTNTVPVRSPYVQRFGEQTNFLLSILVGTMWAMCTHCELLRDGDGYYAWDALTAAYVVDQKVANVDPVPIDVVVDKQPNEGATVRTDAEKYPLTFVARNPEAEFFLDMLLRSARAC
Assay: Inhibition of Trypanosoma vivax IAG-nucleoside hydrolase

Ki [µM]	SMILES
87	Cc1c(-c2ccccc2)nnn1C[C@@H]1O[C@H](CO)[C@@H](O)[C@H]1O
32	Cc1nnn(CC[C@@H]2O[C@H](CO)[C@@H](O)[C@H]2O)c1-c1ccccc1
2.3	Cc1c(-c2ccccc2)nnn1CC[C@@H]1O[C@H](CO)[C@@H](O)[C@H]1O
21	OC[C@H]1O[C@@H](CCn2cc(-c3ccccc3)nn2)[C@H](O)[C@@H]1O
680	OC[C@H]1O[C@@H](CCn2nncc2-c2ccccc2)[C@H](O)[C@@H]1O
520	Cc1nnn(C[C@@H]2O[C@H](CO)[C@@H](O)[C@H]2O)c1-c1ccccc1
23	OC[C@H]1O[C@@H](CCn2cc(-c3ccccn3)nn2)[C@H](O)[C@@H]1O
63	CCc1nnn(CC[C@@H]2O[C@H](CO)[C@@H](O)[C@H]2O)c1CC

SMILES	Ki [µM]
[N-]=[N+]=NCC[C@@H]1O[C@H](CO)[C@@H](O)[C@H]1O	5600
